Legend:
[1] = biological target: T1, soluble guanylate cyclase (Sus scrofa, UniProt A0A4X1U7N1+A0ACM8Q7I6); assay: Stimulation of soluble guanylate cyclase in primary endothelial cells (intracellular cGMP, radioimmunological); type: cell-based; details: 10 min, test substance 1 μM, primary endothelial cells from pig aorta, NOSYNTH, stimulation buffer with or without NO donor (SNP 1 μM), read-out: % cGMP increase (NOSYNTH)
T1 construct: endogenous in cells; host or cells: primary endothelial cells from pig aorta
T1 sequence (A0A4X1U7N1 1-619): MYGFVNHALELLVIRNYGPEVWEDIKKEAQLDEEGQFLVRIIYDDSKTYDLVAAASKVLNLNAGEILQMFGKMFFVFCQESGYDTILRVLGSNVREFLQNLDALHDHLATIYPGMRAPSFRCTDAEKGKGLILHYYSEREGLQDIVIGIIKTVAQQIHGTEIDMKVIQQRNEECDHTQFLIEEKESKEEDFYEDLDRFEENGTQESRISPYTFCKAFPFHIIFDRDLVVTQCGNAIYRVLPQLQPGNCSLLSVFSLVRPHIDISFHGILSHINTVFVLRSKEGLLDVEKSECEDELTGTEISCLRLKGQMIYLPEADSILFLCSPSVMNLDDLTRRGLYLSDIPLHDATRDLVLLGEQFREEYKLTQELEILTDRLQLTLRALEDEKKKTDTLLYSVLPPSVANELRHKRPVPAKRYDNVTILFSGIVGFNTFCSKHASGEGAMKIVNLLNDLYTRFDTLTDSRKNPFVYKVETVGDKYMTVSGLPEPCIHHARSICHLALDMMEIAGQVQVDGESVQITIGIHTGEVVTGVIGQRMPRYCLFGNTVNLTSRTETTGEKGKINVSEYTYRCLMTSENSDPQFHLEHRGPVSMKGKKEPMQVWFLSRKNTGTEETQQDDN
T1 sequence (A0ACM8Q7I6 1-688): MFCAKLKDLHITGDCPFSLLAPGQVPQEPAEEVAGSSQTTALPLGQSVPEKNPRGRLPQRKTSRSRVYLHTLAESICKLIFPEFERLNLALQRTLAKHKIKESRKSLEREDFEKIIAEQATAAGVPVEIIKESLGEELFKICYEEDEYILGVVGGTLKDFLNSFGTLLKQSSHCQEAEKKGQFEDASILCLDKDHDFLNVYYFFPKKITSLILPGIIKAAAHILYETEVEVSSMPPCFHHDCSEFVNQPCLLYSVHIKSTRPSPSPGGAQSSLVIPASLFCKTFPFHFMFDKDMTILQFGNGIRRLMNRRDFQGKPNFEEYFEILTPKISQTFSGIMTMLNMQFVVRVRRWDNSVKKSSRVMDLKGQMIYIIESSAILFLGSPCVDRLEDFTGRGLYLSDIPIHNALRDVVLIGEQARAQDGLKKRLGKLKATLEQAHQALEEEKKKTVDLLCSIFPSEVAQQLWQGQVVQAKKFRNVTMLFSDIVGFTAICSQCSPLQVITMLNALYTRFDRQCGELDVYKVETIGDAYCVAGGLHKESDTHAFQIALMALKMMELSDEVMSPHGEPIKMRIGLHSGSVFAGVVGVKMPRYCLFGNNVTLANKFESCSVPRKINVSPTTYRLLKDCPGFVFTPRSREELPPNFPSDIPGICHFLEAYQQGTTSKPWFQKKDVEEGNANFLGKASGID
Protocol: (§1) To determine the cardiovascular action, the following investigations were carried out: in in vitro investigations on cells of vascular origin, the influence on guanylate cyclase-dependent cGMP formation was tested with and without NO donors. The vasorelaxant action was determined on rabbit aorta rings precontracted with phenylephrine. The hypotensive action was investigated in anaesthetized rats.
Stimulation of Soluble Guanylate Cyclase in Primary Endothelial Cells
Primary endothelial cells were isolated from pig aortas by treatment with collagenase soln. The cells were then cultured in culture medium until confluence was achieved. For the investigations, the cells were passaged, inoculated into cell culture plates and subcultured until confluence was achieved. To stimulate the endothelial guanylate cyclase, the culture medium was aspirated and the cells were washed once with Ringer's solution and incubated in stimulation buffer with or without NO donor (sodium nitroprusside, SNP, 1 μM). Following this, the test substances (final concentration 1 μM) were then pipetted onto the cells. After the end of the incubation time of 10 minutes, the buffer solution was aspirated and the cells were lysed at -20° C. for 16 hours. The intracellular cGMP was then determined radioimmunologically.

rabbit aorta rings = assay: Vasorelaxant action in vitro (aorta rings precontracted with phenylephrine); details: Oryctolagus cuniculus; isolated rabbit aorta, phenylephrine contraction, 37° C., reduction of control contraction by 50%; read-out: Aorta IC 50
Protocol: as §1
Vasorelaxant Action in vitro
1.5 mm wide rings of an isolated rabbit aorta are placed individually under a pretension into 5 ml organ baths containing carbogen-aerated Krebs-Henseleit solution at a temperature of 37° C. The contractile force is amplified and digitalized, and recorded in parallel on a linear recorder. To generate a contraction, phenylephrine is added to the bath cumulatively in increasing concentration.
After several control cycles, the substance to be investigated is investigated in each further passage in increasing dose in each case and the contraction is compared with the height of the contraction achieved in the last previous passage. From this, the concentration is calculated which is necessary to reduce the height of the control value by 50% (IC50). The standard administration volume is 5 μl.

anaesthetized rats = assay: Blood pressure measurements on anaesthetized rats; type: in vivo; details: anaesthetized male Wistar rats; for Max. blood pressure decrease: time 60 min
Protocol: as §1
Blood Pressure Measurements on Anaesthetized Rats
Male Wistar rats having a body weight of 300-350 g are anaesthetized with thiopental (100 mg/kg i.p.). After tracheotomy, a catheter is inserted in the femoral artery for blood pressure measurement. The substances to be tested are administered orally in various doses as a suspension in Tylose solution by means of stomach tube.

SMILES | activation at 1 µM [1] [%] | IC50 (rabbit aorta rings) [µM] | Time (of max. blood pressure decrease table) (anaesthetized rats; 10 mg/kg oral) [min] | Max. blood pressure decrease (anaesthetized rats; 10 mg/kg oral) [mm Hg] | Time (of max. blood pressure decrease table) (anaesthetized rats; 30 mg/kg oral) [min] | Max. blood pressure decrease (anaesthetized rats; 30 mg/kg oral) [mm Hg]
COc1cccc(Cn2nc(-c3ccc(CO)o3)c3ccccc32)c1 [Example 2] | 72 | – | – | – | – | –
OCc1ccc(-c2nn(Cc3cccc(F)c3)c3ccccc23)o1 [Example 4] | 413 | 9.2 | – | – | – | –
OCc1ccc(-c2nn(Cc3ccc(F)cc3)c3ccccc23)o1 [Example 3] | 250 | 16 | – | – | – | –
OCc1ccc(-c2nn(Cc3ccccc3)c3ccccc23)o1 [Example 14, reference compound] | > 906 | 10 | 60 | -10 | 60 | -18
Cc1ccc(-c2nn(Cc3ccccc3)c3ccccc23)o1 [Example 10] | 238 | – | – | – | – | –
COc1cccc(Cn2nc(-c3ccc(CO)o3)c3ccc(F)cc32)c1 [Example 8] | 28 | – | – | – | – | –
OCc1ccc(-c2nn(Cc3ccccc3)c3ccccc23)s1 [Example 11] | 14 | – | – | – | – | –
OCc1ccc(-c2nn(Cc3ccccc3F)c3ccccc23)o1 [Example 1, 1-(2-Fluorobenzyl)-3-(5-hydroxymethylfuran-2-yl)-indazole] | > 1000 | 4.1 | 60 | -14 | 60 | -18
OCc1ccc(-c2nn(Cc3ccccc3F)c3cc(F)ccc23)o1 [Example 7] | 734 | – | – | – | – | –
